The values that follow come from patent US20140275156A1, “FLAVONOID COMPOUNDS, AND METHODS OF USE THEREOF” (NEUPROTECT PTY LTD, priority 2011, published 2014).

The subject of one test is H9C2 rat myoblasts. The test is described as follows: Cytoprotection in H9C2 myoblasts. The test is classed as cell-based. As to the method: (§1) Cardiac myocytes were plated on collagen-coated dishes in serum containing media Dulbecco's modified Eagle's medium/Medium 199 (4:1 v/v) containing 10% (v/v) horse serum, 5% (v/v) fetal calf serum, and penicillin/streptomycin (100 units/ml). Murine skeletal myoblast (C2C12) or rat cardiac myoblasts (H9C2) were maintained in DMEM supplemented with 10% (v/v) fetal calf serum and 100 U/ml penicillin-streptomycin. Cells were incubated overnight at 37° C. in a 5% CO2 incubator prior to the experiment. Cells were pre-treated with flavanols for 30 min prior to stress treatments. Following pre-treatment, cells were stimulated by the addition of H2O2 (1 mM), sorbitol (0.5 M) or arsenite (300 μM). DMSO (0.1% v/v) was used as a vehicle control. Following treatment, cells were assessed for viability or protein lysates prepared for immunoblot analysis.
(§2) To define the protective and kinase modulatory properties of the compounds of the certain embodiments, their effects in greater detail in vitro. The protection of cultured C2C12 murine myoblasts was evaluated against detrimental stress stimuli using an XTT assay of cell viability. In a time-course of oxidative damage, it was observed that 2 h treatment of H2O2 (0.5 or 1.0 mM) reduced myoblast viability to 38.5+2.0% and 31.9+0.8%, respectively, compared with control cells without H2O2 treatment.

The subject of test [1] is primary neonatal rat cardiac myocytes. The test is described as follows: Cytoprotection in primary cardiac myocytes. The format is cell-based. As to the method: as §1, §2
For test [2] the following is noted: in vitro studies (Wang et al., British Journal of Pharmacology (2004) 142, 443-452); cited from earlier work.

Regarding `O=c1c(O)c(-c2ccc(O)c(O)c2)oc2ccccc12` [DiOHF, 3′,4′-dihydroxy flavonol], the protection against stress result (with H9C2 rat myoblasts; in test [1]) was “similarly protective” throughout. Also, in test [2], the “infarct and injury associated with myocardial ischaemia and reperfusion” value is “reduce infarct and injury”.
